Measured values: patent US20030045582A1, “Method for treating hyperglycemia” (Alteon, Inc., priority 2000, published 2003)

Assays:
[1] = system: patients suffering from Type I diabetes with overt diabetic nephropathy; assay: Multicenter, randomized, double-blind, placebo-controlled study: time to doubling of baseline serum creatinine; type: in vivo, human
Experimental: (§1) Renal function was measured every three months using serum creatinine levels, and creatinine clearance rates. In addition, the glomerular filtration rate was measured at entry and every six months. Study participants were treated at one of two dosage levels, (150 mg and 300 mg B.I.D.).
Time to doubling of baseline serum creatinine was measured. Study participants were also treated with standard measures for blood pressure control, and diabetes management, including insulin treatment, diet, and exercise. Serum creatinine levels were made at baseline and randomization visits, at the end of weeks 1-6, the end of month 2, the end of month 3, and then every 3 months for the remainder of the study. “Baseline serum creatinine” was the mean of the levels at the baseline and randomization visits. If the level at any subsequent visit was at least two times the baseline, and was confirmed by a second measurement, the patient was considered to have experienced a doubling of baseline serum creatinine. Serum creatinine levels were determined by a clinical laboratory (SciCor Inc., 8211 SciCor Drive, Indianapolis, Ind. 46214-2985).

[2] = system: patients suffering from Type I diabetes with overt diabetic nephropathy; assay: Same clinical study: 24 hour urinary protein excretion; type: in vivo, human
Experimental: as §1
(FIG. 1). The reduction was generally first observed at the first post-randomization evaluation (at three months) and increased in magnitude over the duration of the study. […] (FIG. 2).

[3] = system: patients suffering from Type I diabetes with overt diabetic nephropathy; assay: Same clinical study: progression of diabetic retinopathy, three or more steps in ETDRS scale; type: in vivo, human
[4] = system: diabetic rats; details: cited from earlier work
[5] = system: kidney; details: in vivo; cited from earlier work
[6] = system: streptozotocin-diabetic rat; details: streptozotocin-diabetic rat model; cited from earlier work
[7] = system: red blood cell (RBC) deformability; details: in vivo; cited from earlier work

Q: For `N=C(N)NN` [Pimagedine, aminoguanidine], which “Patients with adjudicated doubling of serum creatinine (%)” value (shortened to “Patients with adjudicated doubling … (%)”) ([1]; Baseline serum creatinine less than 1.5 mg/dL, Combined) is on record?
A: (10%)

Q: What about the “Odds ratio, doubling of serum creatinine” value ([1]; Baseline serum creatinine less than 1.5 mg/dL, Combined versus placebo) of the same molecule?
A: 0.59

Q: What about the “Patients with adjudicated doubling … (%)” value ([1]; Baseline serum creatinine less than 1.5 mg/dL, High Dose) of the same molecule?
A: (10%)

Q: And the “Odds ratio, doubling of serum creatinine” value ([1]; Baseline serum creatinine less than 1.5 mg/dL, High Dose versus placebo)?
A: 0.52

Q: What about the “Patients with adjudicated doubling … (%)” value ([1]; Baseline serum creatinine less than 1.5 mg/dL, Low Dose) of the same molecule?
A: (11%)

Q: And the “Odds ratio, doubling of serum creatinine” value ([1]; Baseline serum creatinine less than 1.5 mg/dL, Low Dose versus placebo)?
A: 0.64

Q: And the “Patients with adjudicated doubling … (%)” value ([1]; Combined doses)?
A: (20%)

Q: What about the “Odds ratio, doubling of serum creatinine” value ([1]; Combined versus placebo) of the same molecule?
A: 0.73

Q: And the “Patients with adjudicated doubling … (%)” value ([1]; High Dose (300 mg B.I.D.), listed as pimagendine)?
A: 20%

Q: What about the “Odds ratio, doubling of serum creatinine” value ([1]; High Dose versus placebo) of the same molecule?
A: 0.73

Q: What about the “Patients with adjudicated doubling … (%)” value ([1]; Low Dose (150 mg B.I.D.)) of the same molecule?
A: (20%)

Q: What about the “Patients with adjudicated doubling … (%)” value ([1]; Low Dose (150 mg B.I.D.), listed as pimagendine) of the same molecule?
A: 20%

Q: What about the “Odds ratio, doubling of serum creatinine” value ([1]; Low Dose versus placebo) of the same molecule?
A: 0.72

Q: What about the “Reduction in the risk of doubling serum creatinine” value ([1]; all patients, versus placebo) of the same molecule?
A: 29%

Q: What about the “Patients with adjudicated doubling … (%)” value ([1]; high dose (300 mg B.I.D.)) of the same molecule?
A: (20%)

Q: And the “Reduction of the risk of doubling serum creatinine” value ([1]; patients with a baseline serum creatinine of less than 1.5 mg/dL)?
A: 63%

Q: What about the “24 hour urinary protein excretion” value ([2]; high dose (300 mg B.I.D.)) of the same molecule?
A: statistically significant reductions

Q: And the “24 hour urinary protein excretion” value ([2]; low dose (150 mg B.I.D.))?
A: statistically significant reductions

Q: And the Effect on proteinuria ([2]; patients with a baseline serum creatinine of less than 1.5 mg/dL compared with whole population)?
A: greater effect

Q: What about the “% of patients with a ≧ 3 step progression in ETDRS score” value (shortened to “% of patients”) ([3]; Combined) of the same molecule?
A: (10%)

Q: And the “Logistic regression model odds ratio, ≧ 3 step retinopathy progression” value (“Logistic regression model odds ratio” for short) ([3]; Combined versus placebo)?
A: 0.53

Q: And the “% of patients” value ([3]; High Dose)?
A: (8%)

Q: What about the “Logistic regression model odds ratio” value ([3]; High Dose versus placebo) of the same molecule?
A: 0.68

Q: What about the “% of patients” value ([3]; Low Dose) of the same molecule?
A: (11%)

Q: And the “Logistic regression model odds ratio” value ([3]; Low Dose versus placebo)?
A: 0.58

Q: And the “Incidence of progression of retinopathy from baseline to endpoint” value ([3]; progression of three or more steps in ETDRS scale)?
A: decreased

Q: And the “Aortic wall protein cross-linking” value [4]?
A: diminishes

Q: What about the “Immunoglobulin trapping in the kidney” value [5] of the same molecule?
A: reduction

Q: And the “Increased glomerular basement membrane thickness” value [6]?
A: prevented

Q: What about the “Diabetes-induced changes in the deformability of red blood cells” value [7] of the same molecule?
A: prevent
